From ChEMBL document CHEMBL3286154, “Oxabicyclooctane-linked novel bacterial topoisomerase inhibitors as broad spectrum antibacterial agents” (ACS Med Chem Lett, 2014)
Calls of active or inactive are those of the source. No cut-off for these calls is given here.

Experiments:
Mus musculus = assay: Dose normalized AUC in C57BL/6 mouse at 1 mg/kg, iv and 2 mg/kg, po; assay type: ADME, organism-based; conditions: in vivo
Staphylococcus aureus [1] = assay: Antibacterial activity against Staphylococcus aureus infected in iv dosed ICR mouse assessed as increase in mouse survival after 7 days; assay type: functional; conditions: 168 h
Pseudomonas aeruginosa = assay: Antibacterial activity against Pseudomonas aeruginosa; assay type: functional
[2] = Solubility of the compound in PBS at pH 7; assay type: physicochemical
[3] = Oral bioavailability in C57BL/6 mouse at 2 mg/kg; assay type: ADME, organism-based; conditions: in vivo
Staphylococcus aureus [4] = assay: Antibacterial activity against quinolone-resistant Staphylococcus aureus; assay type: functional
[5] = Inhibition of Staphylococcus aureus DNA topoisomerase 4
DNA gyrase = DNA gyrase (Staphylococcus aureus, UniProt P0A0K8+P20831); assay: Inhibition of Staphylococcus aureus DNA gyrase; assay type: protein-complex assay
Sequence of DNA gyrase (P0A0K8 whole entry): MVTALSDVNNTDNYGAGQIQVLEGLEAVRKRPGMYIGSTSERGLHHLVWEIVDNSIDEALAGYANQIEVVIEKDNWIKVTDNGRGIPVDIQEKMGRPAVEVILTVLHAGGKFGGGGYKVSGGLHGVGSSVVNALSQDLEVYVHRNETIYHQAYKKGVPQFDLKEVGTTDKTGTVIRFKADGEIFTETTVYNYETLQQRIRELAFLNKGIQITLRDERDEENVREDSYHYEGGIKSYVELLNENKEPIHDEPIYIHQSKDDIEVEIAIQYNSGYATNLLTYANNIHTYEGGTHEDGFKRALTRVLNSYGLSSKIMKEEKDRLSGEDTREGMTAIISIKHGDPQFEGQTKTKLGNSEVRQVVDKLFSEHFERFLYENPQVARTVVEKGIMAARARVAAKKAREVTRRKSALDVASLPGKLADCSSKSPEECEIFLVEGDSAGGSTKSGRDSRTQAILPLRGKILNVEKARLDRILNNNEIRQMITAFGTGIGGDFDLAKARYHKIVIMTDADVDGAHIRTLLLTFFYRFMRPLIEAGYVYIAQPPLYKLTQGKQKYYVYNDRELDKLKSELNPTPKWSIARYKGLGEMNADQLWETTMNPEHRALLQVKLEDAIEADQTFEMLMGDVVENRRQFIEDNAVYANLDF
Sequence of DNA gyrase (P20831 whole entry): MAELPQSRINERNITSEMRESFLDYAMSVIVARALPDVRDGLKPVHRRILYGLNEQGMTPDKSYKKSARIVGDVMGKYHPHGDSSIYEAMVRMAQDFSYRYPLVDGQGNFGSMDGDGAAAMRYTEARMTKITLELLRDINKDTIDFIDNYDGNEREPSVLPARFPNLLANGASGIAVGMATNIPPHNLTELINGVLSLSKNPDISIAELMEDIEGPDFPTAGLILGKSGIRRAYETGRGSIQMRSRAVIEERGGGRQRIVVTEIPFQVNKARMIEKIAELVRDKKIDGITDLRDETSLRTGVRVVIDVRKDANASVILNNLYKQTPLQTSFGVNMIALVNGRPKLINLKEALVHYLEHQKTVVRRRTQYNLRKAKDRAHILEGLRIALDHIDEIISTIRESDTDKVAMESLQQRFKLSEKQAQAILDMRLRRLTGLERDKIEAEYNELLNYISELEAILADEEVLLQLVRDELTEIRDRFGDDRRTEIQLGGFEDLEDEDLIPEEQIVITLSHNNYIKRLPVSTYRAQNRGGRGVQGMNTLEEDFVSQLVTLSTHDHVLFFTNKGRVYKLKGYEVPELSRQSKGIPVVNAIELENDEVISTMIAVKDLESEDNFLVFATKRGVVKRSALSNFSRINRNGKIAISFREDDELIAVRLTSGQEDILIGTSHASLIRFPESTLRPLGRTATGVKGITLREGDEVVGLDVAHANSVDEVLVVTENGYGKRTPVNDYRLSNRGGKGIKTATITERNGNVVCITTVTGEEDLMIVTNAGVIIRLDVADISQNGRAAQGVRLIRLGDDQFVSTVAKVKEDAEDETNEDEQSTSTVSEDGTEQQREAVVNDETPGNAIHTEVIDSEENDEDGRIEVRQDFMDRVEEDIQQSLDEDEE

Canis familiaris = assay: Dose normalized AUC in beagle dog at 1 mg/kg, iv and 2 mg/kg, po; assay type: ADME, organism-based, Canis lupus familiaris; conditions: in vivo
[6] = Solubility of the compound in PBS at pH 2; assay type: physicochemical
[7] = Half life in beagle dog at 1 mg/kg, iv and 2 mg/kg, po; assay type: ADME, organism-based, Canis lupus familiaris; conditions: in vivo
Liver microsome [8] = assay: Metabolic stability in human liver microsomes after 30 to 60 mins; assay type: ADME
[9] = Plasma clearance in C57BL/6 mouse at 1 mg/kg, iv and 2 mg/kg, po; assay type: ADME, organism-based
[10] = Volume of distribution at steady state in C57BL/6 mouse at 1 mg/kg, iv and 2 mg/kg, po; assay type: ADME, organism-based; conditions: in vivo, read-out: Vdss
[11] = Oral bioavailability in beagle dog at 2 mg/kg; assay type: ADME, organism-based, Canis lupus familiaris; conditions: in vivo
Haemophilus influenzae = assay: Antibacterial activity against Haemophilus influenzae; assay type: functional
[12] = Unbound fraction in mouse plasma; assay type: ADME, cell-free
[13] = Volume of distribution at steady state in beagle dog at 1 mg/kg, iv and 2 mg/kg, po; assay type: ADME, organism-based, Canis lupus familiaris; conditions: in vivo, read-out: Vdss
Staphylococcus aureus [14] = assay: Antibacterial activity against methicillin-sensitive Staphylococcus aureus; assay type: functional
Liver = assay: Metabolic stability in mouse liver microsomes after 30 to 60 mins; assay type: ADME
[15] = Plasma clearance in beagle dog at 1 mg/kg, iv and 2 mg/kg, po; assay type: ADME, organism-based, Canis lupus familiaris
Staphylococcus aureus [16] = assay: Antibacterial activity against Staphylococcus aureus infected in po dosed ICR mouse assessed as increase in mouse survival after 7 days; assay type: functional; conditions: 168 h
[17] = Half life in C57BL/6 mouse at 1 mg/kg, iv and 2 mg/kg, po; assay type: ADME, organism-based; conditions: in vivo
Staphylococcus aureus [18] = assay: Antibacterial activity against Staphylococcus aureus in presence of 50% human serum; assay type: functional, organism-based
Liver microsome [19] = assay: Metabolic stability in dog liver microsomes after 30 to 60 mins; assay type: ADME, Canis lupus familiaris
[20] = Unbound fraction in dog plasma; assay type: ADME, cell-free, Canis lupus familiaris
Streptococcus pneumoniae = assay: Antibacterial activity against Streptococcus pneumoniae; assay type: functional
[21] = Unbound fraction in human plasma; assay type: ADME, cell-free
[22] = Inhibition of Escherichia coli topoisomerase 4
Staphylococcus aureus [23] = assay: Antibacterial activity against methicillin-resistant Staphylococcus aureus; assay type: functional
Escherichia coli [24] = assay: Antibacterial activity against Escherichia coli; assay type: functional
Staphylococcus aureus [25] = assay: Antibacterial activity against Staphylococcus aureus in presence of 500 ug/ml sheared DNA; assay type: functional, organism-based
Enterococcus faecium = assay: Antibacterial activity against vancomycin-resistant Enterococcus faecium; assay type: functional
Acinetobacter baumannii = assay: Antibacterial activity against Acinetobacter baumannii; assay type: functional
Staphylococcus aureus [26] = assay: Inhibition of DNA synthesis in Staphylococcus aureus using radioligand at 0.001 to 1 ug/ml by scintillation counting
[27] = Inhibition of Escherichia coli gyrase
Enterococcus faecalis = assay: Antibacterial activity against Enterococcus faecalis; assay type: functional
Staphylococcus aureus [28] = assay: Antibacterial activity against quinolone-sensitive Staphylococcus aureus; assay type: functional
Escherichia coli [29] = assay: Antibacterial activity against Escherichia coli infected in iv dosed ICR mouse assessed as increase in mouse survival after 7 days; assay type: functional; conditions: 168 h
Moraxella catarrhalis = assay: Antibacterial activity against Moraxella catarrhalis; assay type: functional
Staphylococcus aureus [30] = assay: Antibacterial activity against Staphylococcus aureus ATCC 29213 assessed as reduction of colony forming units using > 10^5 CFU/ml inoculum at 0.06 to 0.12 ug/ml by time kill experiment; assay type: functional
Escherichia coli [31] = assay: Antibacterial activity against Escherichia coli infected in po dosed ICR mouse assessed as increase in mouse survival after 7 days; assay type: functional; conditions: 168 h

In the case of `COc1ccc2ncc(F)c(CCC34CCC(NCc5ccc6c(n5)NC(=O)CO6)(CC3)CO4)c2n1.Cl`, the AUC/dose (Mus musculus) is reported as 0.98 µM·h/mpk, the ED50 (Staphylococcus aureus [1]) is reported as 5.5 mg/kg and the MIC (Pseudomonas aeruginosa) is reported as 4 µg/mL. The solubility [2] was < 0.89 µM, the bioavailability [3] was 71.6% and the MIC (Staphylococcus aureus [4]) was 0.064 µg/mL. The IC50 [5] was 4400 nM, the IC50 (DNA gyrase) was 220 nM and the AUC/dose (Canis familiaris) was 0.43 µM·h. The solubility [6] was 20.3 µM, the half-life [7] was 1.85 h and the Stability (Liver microsome [8]) was “Stable”. For the same compound, the clearance [9] was 34.6 mL/min/kg, the Vd [10] was 2.22 L/kg and the bioavailability [11] was > 100%. For the same compound, the MIC (Haemophilus influenzae) was 1 µg/mL, the fraction unbound [12] was < 0.02 and the Vd [13] was 5.36 L/kg. The MIC (Staphylococcus aureus [14]) was 0.016 µg/mL, the Stability (Liver) was “Stable” and the clearance [15] was 39.8 mL/min/kg. For the same compound, the ED50 (Staphylococcus aureus [16]) was 17 mg/kg, the half-life [17] was 2.24 h and the Activity (Staphylococcus aureus [18]) was “inactive”. The Stability (Liver microsome [19]) was “Stable”, the fraction unbound [20] was < 0.02 and the MIC (Streptococcus pneumoniae) was 0.064 µg/mL. The fraction unbound [21] was < 0.02, the IC50 [22] was 200 nM and the MIC (Staphylococcus aureus [23]) was 0.008 µg/mL. For the same compound, the MIC (Escherichia coli [24]) was 1 µg/mL, the Activity (Staphylococcus aureus [25]) was “inactive” and the MIC (Enterococcus faecium) was 0.5 µg/mL. The MIC (Acinetobacter baumannii) was 0.5 µg/mL, the inhibition (Staphylococcus aureus [26]) was “Active” and the IC50 [27] was 180 nM. It also gave an MIC (Enterococcus faecalis) of 1 µg/mL and an MIC (Staphylococcus aureus [28]) of 0.016 µg/mL.

With `COc1ccc2ncc(F)c(C[C@@H](O)C34CCC(NCc5ccc6c(n5)NC(=O)CO6)(CC3)CO4)c2n1.Cl` the AUC/dose (Mus musculus) was 0.68 µM·h/mpk, the ED50 (Staphylococcus aureus [1]) was 3.5 mg/kg and the MIC (Pseudomonas aeruginosa) was 8 µg/mL. For the same compound, the bioavailability [3] was 25.3%, the MIC (Staphylococcus aureus [4]) was 0.5 µg/mL and the Stability (Liver microsome [8]) was “Stable”. The clearance [9] was 48.7 mL/min/kg, the Vd [10] was 4.94 L/kg and the fraction unbound [12] was > 0.25. For the same compound, the MIC (Staphylococcus aureus [14]) was 0.06 µg/mL, the Stability (Liver) was “Stable” and the ED50 (Staphylococcus aureus [16]) was 4.5 mg/kg. The half-life [17] was 2.15 h, the Activity (Staphylococcus aureus [18]) was “Active” and the Stability (Liver microsome [19]) was “Stable”. The fraction unbound [20] was > 0.25, the MIC (Streptococcus pneumoniae) was 0.25 µg/mL and the fraction unbound [21] was > 0.25. The MIC (Staphylococcus aureus [23]) was 0.5 µg/mL, the MIC (Escherichia coli [24]) was 4 µg/mL and the Activity (Staphylococcus aureus [25]) was “Active”. For the same compound, the MIC (Enterococcus faecium) was 2 µg/mL, the MIC (Acinetobacter baumannii) was 1 µg/mL and the MIC (Enterococcus faecalis) was 1 µg/mL. The MIC (Staphylococcus aureus [28]) was 0.06 µg/mL.

Compound `COc1ccc2ncc(F)c(C[C@H](O)C34CCC(NCc5ccc6c(n5)NC(=O)CO6)(CC3)CO4)c2n1.Cl` has an AUC/dose (Mus musculus) of 0.76 µM·h/mpk, an ED50 (Staphylococcus aureus [1]) of 2.5 mg/kg and an MIC (Pseudomonas aeruginosa) of 8 µg/mL. For the same compound, the solubility [2] was 154 µM, the bioavailability [3] was 30.1% and the MIC (Staphylococcus aureus [4]) was 0.25 µg/mL. The IC50 [5] was 10400 nM, the IC50 (DNA gyrase) was 1020 nM and the AUC/dose (Canis familiaris) was 3.57 µM·h. It also gave a solubility [6] of 200 µM, an ED50 (Escherichia coli [29]) of 23 mg/kg and a half-life [7] of 4.49 h. The Stability (Liver microsome [8]) was “Stable”, the clearance [9] was 43.3 mL/min/kg and the Vd [10] was 1.61 L/kg. For the same compound, the bioavailability [11] was 40.4%, the MIC (Haemophilus influenzae) was 0.5 µg/mL and the fraction unbound [12] was > 0.25. The Vd [13] was 2.6 L/kg, the MIC (Staphylococcus aureus [14]) was 0.02 µg/mL and the Stability (Liver) was “Stable”. For the same compound, the MIC (Moraxella catarrhalis) was 0.015 µg/mL, the clearance [15] was 9.16 mL/min/kg and the ED50 (Staphylococcus aureus [16]) was 2.2 mg/kg. For the same compound, the half-life [17] was 1.7 h, the Activity (Staphylococcus aureus [18]) was “Active” and the Stability (Liver microsome [19]) was “Stable”. For the same compound, the fraction unbound [20] was > 0.25, the MIC (Streptococcus pneumoniae) was 0.05 µg/mL and the fraction unbound [21] was > 0.25. It also gave an IC50 [22] of 500 nM, an MIC (Staphylococcus aureus [23]) of 0.06 µg/mL and an MIC (Escherichia coli [24]) of 2 µg/mL. The Activity (Staphylococcus aureus [25]) was “Active”, the log10cfu (Staphylococcus aureus [30]) was >3 and the ED50 (Escherichia coli [31]) was 85 mg/kg. For the same compound, the MIC (Enterococcus faecium) was 0.5 µg/mL, the MIC (Acinetobacter baumannii) was 0.5 µg/mL and the IC50 [27] was 780 nM. The MIC (Enterococcus faecalis) was 0.5 µg/mL and the MIC (Staphylococcus aureus [28]) was 0.06 µg/mL.
